Measurements from patent publication US10420803B2, “Differentiation of pluripotent stem cells to intestinal midgut endoderm cells” (Janssen Biotech, Inc., priority 2016, dated 2019).

Key:
Format in all cases: cell-based, human
[1] = test system: H1-hESC-derived S3D5 cells; test: FACS quantification of protein co-presence in S3D5 cells
Method: (§1) Differentiation: The cultures were differentiated using the following protocol. During Stages 1 through 3 of the protocol, cultures were maintained on planar adherent cultures. […] The following nomenclature, S#D#, specifies exact time during Stages 1 through 3. For example, S1D3 is stage 1 day 3. Briefly, each stage defines differentiation towards definitive endoderm (stage 1), primitive gut tube (stage 2), and intestinal midgut endoderm (stage 3). • a. Stage 1 (3 days): Cells were cultured for one day in the following Stage 1 media:
Quantification of differentiated cells: For quantification of protein presence co-localization, S3D5 cells were harvested and analyzed by FACS. FACS staining was conducted as described in Nature Biotechnology, 2014 (32) 11, 1121-1133, incorporated herein by reference in its entirety, and using the antibodies listed in Table II. In brief, differentiated cells were incubated in TrypLE™ Express (Life Technologies, Carlsbad, Calif., Catalog No. 12604) for 5-10 minutes at 37° C., released into a single-cell suspension, after which they were washed twice with a staining buffer of PBS containing 0.2% BSA (BD Biosciences, San Jose, Calif., Catalog No. 554657). Intracellular antibody staining was accomplished by utilizing the LIVE/DEAD Violet Fluorescent reactive dye (Life Technologies, Carlsbad, Calif., Catalog No. L34955) at 4° C. for 30 minutes followed by a single wash in cold PBS. Fixing of cells was in 300 μl of Cytofix/Cytoperm Buffer (BD Biosciences, San Jose, Calif., Catalog No. 554723) followed by two washes in Perm/Wash Buffer (BD Biosciences, San Jose, Calif., Catalog No. 554722). Cells were then incubated with the appropriate antibodies at 4° C. for 30 minutes (for unconjugated antibodies) or 1 hour (for conjugated antibodies), and then washed twice prior to analysis on the BD FACS Canto II using BD FACS Diva Software with at least 30,000 events being acquired. Non-viable cells were excluded during FACS analysis, and gating was determined by using isotype antibodies (“IgG”). IgG FACS data is shown as the top panel for each FACS experiment presented. Antibodies were tested for specificity using positive controls, such as Caco-2 cells, or negative controls, such as S1D3 definitive endoderm (“DE”) cells.

[2] = test system: H1-hESC-derived S3D5 cells; test: Gene expression by qPCR (Taqman Arrays) in S3D5 cells
Method: as §1
For quantification of gene expression at various stages, Caco-2, H1-hESC, S1D3, S2D2, S3D2 and S3D5 cells were harvested, as described in Nature Biotechnology, 2014 (32) 11, 1121-1133. Briefly, gene expression was assessed in cells using custom Taqman® Arrays (Applied Biosystems, Foster City, Calif.); Open Array® (OA) was used for CDX2, FOXA2, SOX2, SOX9, PDX1, ALB, PTF1A, and Taqman® Low Density Array (TLDA) was used for KLF5, HOXC5, and LGR5, with housekeeping gene GAPDH used for both tests. Data were analyzed using Sequence Detection Software (Applied Biosystems, Foster City, Calif.), and normalized using GAPDH as a housekeeping gene to undifferentiated H1-hESC using the ΔΔCt method. Primer details are outlined in Table IV.

[3] = test system: H1-hESC-derived S3D5 cells; test: Cell number characterization using the Nucleocounter NC-100
Method: A summary of a differentiation method, including the important medium components, growth factors and small molecules that were added to each stage, and key stage-specific markers of the differentiating intestinal midgut endoderm cells (FOXA2; CDX2; KLF5; SOX9; PDX1^LO) is depicted in FIG. 1A. As compared to the neutral pH noted for S2D2 (7.35±0.04), cells were exposed to slightly acidic conditions in the BLAR medium, during the entirety of stage 3 (pH; S3D1, 6.98±0.05; S3D2, 7.02±0.04; S3D5, 7.18±0.03) (FIG. 1B), and as a result of lower sodium bicarbonate levels in BLAR medium. The pH of the culture can range from about 6.8 to 7.2 during the five days of stage 3. FIG. 1C depicts representative phase-contrast images of a S3D5 monolayer (left), and human epithelial colon adenocarcinoma cell line (“Caco-2”) (right), which was used as a benchmark for characterization of differentiation. A uniform morphology at S3D5 was observed.

[4] = S3D5, compared to pancreas-biased S4D3 cells

BMP4: Bone morphogenic protein-4, 50 ng/ml with 1 μM retinoic acid in BLAR medium during Stage 3
S3D5 cells exhibiting SOX2 and CDX2 co-presence [1]: 1.45±0.15%
percent of cells co-positive for both CDX2 and PDX1 [1]: 69.4±14.2%
percent of cells co-present for both CDX2 and SOX9 [1]: 98.7±0.25%
percent of S3D5 cells co-present for both CDX2 and FOXA2 protein ([1]; Stage 3 in BLAR medium with 1 μM retinoic acid and 50 ng/ml BMP): 90.0±5.85%
percentage KI67-protein positive cells of total S3D5 cells ([1]; total cells >90% CDX2-positive): 16.8±3.12%
ALB gene expression ([2]; S3D5): not observed
HOXA13 gene expression ([2]; S3D5): not induced
HOXC5 gene expression ([2]; S3D5): strongly induced
KLF5 gene expression ([2]; S3D5): upregulated
LGR5 gene expression ([2]; S3D5): not induced
SOX2 gene expression ([2]; S3D5): below levels seen in hESC and Caco-2 cells
SOX9 gene expression ([2]; S3D5, compared to Caco-2 cells): Strong induction
PDX1 gene expression [2, 4]: induced at low levels
PTF1A gene expression [2, 4]: not induced
CDX2 gene expression ([2]; during Stage 3): induced
FOXA2 gene expression ([2]; during Stage 3): maintained
S3D5 cells obtained from one hESC [3]: 4.56±2.60
